Biological target: T1, EnLOX (Enterovibrio norvegicus, UniProt A0A1I5T4S6)
T1 construct: gene SAMN03084138_03074; E. coli BL21(DE3); Ni-NTA purified
T1 sequence (A0A1I5T4S6 1-726): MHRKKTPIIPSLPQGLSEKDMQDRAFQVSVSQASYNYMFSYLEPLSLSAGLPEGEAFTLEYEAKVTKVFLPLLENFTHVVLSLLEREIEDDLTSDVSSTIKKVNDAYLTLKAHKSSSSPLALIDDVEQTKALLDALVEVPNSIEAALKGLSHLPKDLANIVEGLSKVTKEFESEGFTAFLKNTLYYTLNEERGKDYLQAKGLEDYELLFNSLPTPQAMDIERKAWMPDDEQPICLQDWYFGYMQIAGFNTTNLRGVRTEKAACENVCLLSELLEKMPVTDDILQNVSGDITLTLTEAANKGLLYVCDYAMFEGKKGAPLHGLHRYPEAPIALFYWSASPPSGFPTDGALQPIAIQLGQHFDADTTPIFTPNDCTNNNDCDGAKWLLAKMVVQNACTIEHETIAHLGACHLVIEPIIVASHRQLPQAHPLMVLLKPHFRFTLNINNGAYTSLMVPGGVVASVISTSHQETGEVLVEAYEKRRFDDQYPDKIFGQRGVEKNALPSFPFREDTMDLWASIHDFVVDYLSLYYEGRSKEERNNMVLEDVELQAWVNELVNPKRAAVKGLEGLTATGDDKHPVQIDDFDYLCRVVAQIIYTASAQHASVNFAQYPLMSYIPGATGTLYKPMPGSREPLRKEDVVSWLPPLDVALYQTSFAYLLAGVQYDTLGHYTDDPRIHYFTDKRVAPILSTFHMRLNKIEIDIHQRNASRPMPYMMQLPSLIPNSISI
Assay: absorbance at […] nm, Michaelis-Menten nonlinear fit
Type: biochemical
Details: 20 mmol L^−1 Tris-HCl, pH 8.0, 50 °C

Structure (SMILES)	Km
CC/C=C\C/C=C\C/C=C\CCCCCCCC(=O)O [ALA, α-linolenic acid]	2.32 µM
CCCCC/C=C\C/C=C\C/C=C\CCCCC(=O)O [GLA, γ-linolenic acid]	8.79 µM

— article PMC9498203, “Characterization and Preliminary Application of a Novel Lipoxygenase from Enterovibrio norvegicus” (Foods, 2022)
